Data reported in BindingDB's records for doi:10.1016/j.bmc.2019.01.012 (University of Education, 2019).

Experiments:
[1] = target: Acetylcholinesterase (Homo sapiens, UniProt P22303); experiment: Inhibition of AChE (unknown origin) using […] as substrate by Ellman method
[2] = target: Cholinesterase (Homo sapiens, UniProt P06276); experiment: Inhibition of BuChE (unknown origin) using butyrylthiocholine bromide as substrate by Ellman method
Chain of Cholinesterase (P06276 whole entry): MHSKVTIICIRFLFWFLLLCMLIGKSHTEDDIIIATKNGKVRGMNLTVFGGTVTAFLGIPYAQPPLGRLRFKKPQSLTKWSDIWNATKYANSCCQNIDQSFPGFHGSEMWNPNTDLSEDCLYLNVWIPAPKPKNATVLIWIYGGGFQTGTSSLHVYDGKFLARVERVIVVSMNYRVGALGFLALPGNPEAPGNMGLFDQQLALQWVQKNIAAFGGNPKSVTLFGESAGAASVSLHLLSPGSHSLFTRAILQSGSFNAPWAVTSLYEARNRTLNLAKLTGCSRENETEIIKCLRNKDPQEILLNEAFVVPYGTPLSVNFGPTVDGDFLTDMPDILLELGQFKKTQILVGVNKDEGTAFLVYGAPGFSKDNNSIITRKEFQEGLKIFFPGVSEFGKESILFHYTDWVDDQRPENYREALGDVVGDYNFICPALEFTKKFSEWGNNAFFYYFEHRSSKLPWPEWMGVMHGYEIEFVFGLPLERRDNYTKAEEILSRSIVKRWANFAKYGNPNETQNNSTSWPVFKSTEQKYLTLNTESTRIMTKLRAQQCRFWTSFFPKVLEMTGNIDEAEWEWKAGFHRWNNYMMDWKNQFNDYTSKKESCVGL

Chain of Acetylcholinesterase (P22303 whole entry): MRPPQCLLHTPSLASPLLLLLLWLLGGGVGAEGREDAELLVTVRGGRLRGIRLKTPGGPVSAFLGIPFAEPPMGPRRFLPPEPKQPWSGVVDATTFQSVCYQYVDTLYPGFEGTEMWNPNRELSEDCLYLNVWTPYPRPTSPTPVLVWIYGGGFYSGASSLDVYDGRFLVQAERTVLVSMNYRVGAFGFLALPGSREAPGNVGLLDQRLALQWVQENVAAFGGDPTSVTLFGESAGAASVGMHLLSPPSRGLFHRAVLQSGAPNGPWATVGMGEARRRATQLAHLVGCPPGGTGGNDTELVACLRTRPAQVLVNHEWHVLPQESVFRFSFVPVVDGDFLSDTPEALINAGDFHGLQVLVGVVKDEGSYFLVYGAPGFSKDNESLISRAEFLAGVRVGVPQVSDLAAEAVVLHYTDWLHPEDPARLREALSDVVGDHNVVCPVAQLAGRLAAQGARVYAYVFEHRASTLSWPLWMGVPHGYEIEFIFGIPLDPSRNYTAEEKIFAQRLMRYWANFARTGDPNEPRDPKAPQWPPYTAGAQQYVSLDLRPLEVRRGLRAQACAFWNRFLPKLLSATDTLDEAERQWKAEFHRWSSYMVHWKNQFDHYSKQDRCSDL

Q: With `CC(C)Cc1ccc([C@H](C)C(=O)O)cc1` [(RS)-ibuprofen] as the compound, how does the IC50 [1] read?
A: The IC50 was 235 µM.

Q: What about the IC50 [2] of the same compound?
A: Its IC50 is less than 600 µM.

Q: Which IC50 [1] does the source give for `CC(C)Cc1ccc(C(C)C(=O)NS(=O)(=O)c2ccc(N)cc2)cc1` (stereo not given) here?
A: The IC50 was less than 600 µM.

Q: What about the IC50 [2] of the same compound?
A: The IC50 was 214 µM.

Q: Which IC50 [2] does the source give for `Nc1ccc(S(N)(=O)=O)cc1` [aromatic sulfonamide compound 5] here?
A: Its IC50 is 138 µM.
